Reference: patent publication US20110129532A1, “METHOD AND MEANS FOR TREATING VIRAL DISEASE, IN PARTICULAR HIV/AIDS” (ISR Immune System Regulation AB, priority 2008, published 2011)

Key:
[1] = tested on: PBMC; assay: IL-2-induced PBMC proliferation assay ([3H]thymidine); type: cell-based, human; conditions: PBMC from a healthy donor; with IL-2 50 U/mL; compared with IL-2 alone and untreated controls; FIG. 1
Description: Isolation of peripheral blood mononuclear cells (PBMC). Lymphocytes and monocytes were purified from blood samples from healthy donors using Ficoll-Paque Plus (Amersham Biosciences, Uppsala, Sweden). The blood sample was diluted with PBS and carefully layered on a Ficoll-sodium diatrizoate solution, after which the two-phase system was centrifuged at 400×g for 30 min. […] The lymphocyte layer was collected using a Pasteur pipette, and the cells washed with HBSS to remove excess Ficoll-Paque Plus, plasma and platelets. The cells were counted and dissolved in RPMI medium containing 10% HuS, 1% PeSt and 1% glutamine.
Proliferation assay. Interleukin (IL)-2 plays a pivotal role in lymphocyte activation and proliferation. For this reason the effect of GnRH analog on IL-2-induced PBMC proliferation was investigated. PBMCs from a healthy donor were plated in round-bottomed 96-well plates at a concentration of 1×10^5 cells/100 μL in the culture medium described above. Just after the onset of culture, the cells were treated with IL-2 (Proleukin, Chiron Corporation, Emeryville, Ca, USA) at a concentration of 50 U/mL and with three different concentrations between 1×10^−9 and 1×10^−5 M of GnRH analog (Leuprolide acetate, Nordic Drugs, Limhamn, Sweden) or culture medium (FIG. 1). […] Radioactivity was measured using a 1205 Betaplate Liquid ScintillCounter (Wallac, Turku, Finland).

[2] = tested on: T cells; assay: Stimulation of T cells in whole blood with GnRH analog, activation markers by flow cytometry; type: cell-based, human
Description: Stimulation of T-cells from HIV-patients with GnRH-analog. Because of the risk of contamination, blood samples from HIV-patients had to be handled and analyzed in a closed automated system. Heparinised blood from three HIV-patients and two healthy individuals was diluted with serum-free culture medium (Aim V from Invitrogen) and stimulated with 50 U/mL IL-2 and four different concentrations of the GnRH analog leuprolide acetate between 10^−1 and 10^−5 M. The blood samples were handled by a dispensation robot (Prep Plus) and incubated, lysed, stabilized and fixed in a TQ-Prep machine. The incubation time was 18 h and the temperature 37° C. After the incubation with Leuprolide acetate and IL-2, the cells were stained with fluorochrome-conjugated mAbs for 10 min, and red blood cells were lysed. The lymphocytes were subsequently analysed by flow cytometry on an Epics XL-MCL (all machines from Beckman Coulter). T-cells were identified by their forward-and side scatter properties, and the surface expression of CD3. The expression of the activation markers CD25, CD69, HLA ABC, and HLA DR on T cells was evaluated.

[3] = whole blood, HIV-infected patients and control subjects, 18 h incubation

Structure (SMILES): CCNC(=O)[C@@H]1CCCN1C(=O)[C@H](CCCNC(=N)N)NC(=O)[C@H](CC(C)C)NC(=O)[C@@H](CC(C)C)NC(=O)[C@H](Cc1ccc(O)cc1)NC(=O)[C@H](CO)NC(=O)[C@H](Cc1c[nH]c2ccccc12)NC(=O)[C@H](Cc1c[nH]cn1)NC(=O)[C@@H]1CCC(=O)N1 [GnRH, D-Leu^6, des-Gly-NH2^10] GnRH (1-9) NHEt]
- PBMC proliferation [1]: increased proliferation
- expression of HLA DR on T cells ([2]; whole blood from HIV-patients, 18 h incubation): increased in one of three HIV-patients
- expression of HLA ABC on T cells ([2]; whole blood from healthy subjects or HIV-infected patients, 18 hours incubation, 50 U/mL IL-2, leuprolide acetate between 10^−1 and 10^−5 M, FIG. 6): upregulation of HLA ABC
- expression of CD25 on T cells [2, 3]: only a slight increase
- expression of CD69 on T cells [2, 3]: only a slight increase
